Measurements published in US4665083A, “Iminothiazolidine derivatives” (priority 1984, dated 1987).

Experiments:
Reserpine ptosis = assay: animal or person; format: in vivo
Experimental: (3) Reserpine ptosis antagonism on mice
Each group consisting of 10 mice are treated with 6 mg/kg of reserpine, subcutaneously. […] The animals with ptosis are counted 60 and 120 minutes after the administration of the compounds to be tested. Evaluation is carried out as given under point (2) above.

in vivo = settings: mouse, mice, oral, 7 days observation, Litchfield-Wilcoxon
Experimental: (1) Acute toxicity on mice
The acute toxicity is determined on mice of both sex (CFLP breed, body weight 18 to 22 g). For each dosis 6 animals are employed. The compounds tested are administered orally in a volume of 20 ml/kg body weight. After the administration the animals are observed for 7 days. During this period the animals are fed with standard mouse feed and water ad libitum. The toxicity values are determined according to Litchfield-Wilcoxon's method.

pentatetrazole spasm = assay: animal or person; format: in vivo; settings: for Therapeutical index (inhibition of pentatetrazole spasm): LD50 and ED50 pentatetrazole spasm, mice; for ED50: Mus musculus, po, read-out: Inhibition of pentatetrazole spasm ED50
Experimental: (6) Inhibition of pentatetrazole spasm
The test is performed on mice according to a modified method of Banziger and Hane.

acetic acid writhing = assay: animal or person; format: in vivo; settings: for Therapeutical index (analgesic effect, writhing test): LD50 and ED50 writhing test, mice; for ED50: Mus musculus, ip, read-out: Analgesic effect (writhing test) ED50
Experimental: (9) Analgesic effect on mice (writhing test)
The test is carried out on mice according to the modified method of Newbould. 0.75 percent acetic acid is administered to the animals in a volume of 20 ml/kg, intraperitoneally, and the characteristic "writhing reactions" are counted for a period of 5 minutes, starting from the fifth minute after challenge. […] The inhibition relative to the control group is evaluated in percentage.

nicotine lethality = assay: Inhibition of nicotine spasm / nicotine lethality; format: in vivo, mice; settings: mice; for Therapeutical index (inhibition of nicotine lethality): LD50 and ED50 nicotine lethality; for ED50: Mus musculus, oral, 1 hour before 1.4 mg/kg i.v. nicotine, read-out: Inhibition of nicotine lethality ED50
Experimental: (5) Inhibition of nicotine spasm
The test is carried out on mice according to Stone.

maximum electroshock = assay: animal or person; format: in vivo; settings: for Therapeutical index (inhibition of maximum electroshock): LD50 and ED50 electroshock, mice; for ED50: Mus musculus, po, read-out: Inhibition of maximum electroshock ED50
Experimental: (7) Maximum inhibition of electroshock
The examination is carried out on mice weighing 20 to 25 g according to Swinyard. Electroshocks having the parameters of 50 Hz, 45 mA and 0.4 sec are employed by means of corneal electrodes. The complete inhibition of the tonic spasm of the lower limb extensor is taken as the criterium of the anticonvulsive action.

Tetrabenazine ptosis = assay: animal or person; format: in vivo; settings: for Therapeutical index (tetrabenazine ptosis antagonism): LD50 and ED50 tetrabenazine ptosis, mice; for ED50: Mus musculus, po, read-out: Tetrabenazine ptosis antagonism ED50
Experimental: (2) Tetrabenazine ptosis antagonism on mice
The tetrabenazine ptosis antagonism of the compounds are tested on groups consisting of 10 mice each. […] 30 minutes after the introduction of the active agent or the vehicle, 50 mg/kg of tetrabenazine (3-isobutyl-9,10-[…]-1,2,3,4,6,7-hexahydrobenzo[a]quinolizine-2-one) are administered, intraperitoneally, and the animals with ptosis are counted 30, 60, 90 and 120 minutes after the administration of the tetrabenazine.
Evaluation: the average ptosis value is calculated in each group, and the deviation from the average obtained for the control group (inhibition) is given in percentage. From the data obtained ED50 values are calculated.

intestinal peristalsis = assay: animal or person; format: in vivo
Experimental: (8) Antiperistaltic effect on mice
The antiperistaltic effect of the compounds is examined on mice weighing 20 to 25 g according to the method of Stickney and co-workers. Each dosis of the compound to be tested is administered, orally, 60 minutes prior to the administration of a 10 percent carbon suspension. […] 20 minutes after the administration of the carbon suspension, the animals are sacrificed, and the length of the entire small intestine as well as that of the small intestine filled with carbon are determined. The inhibition in relation to the control is calculated in percentage. […] From the values thus-transformed ED50 values are calculated.

yohimbine toxicity = assay: animal or person; format: in vivo; settings: for Therapeutical index (potentiation of yohimbine toxicity): LD50 and ED50 yohimbine toxicity, mice; for ED50: Mus musculus, ip, read-out: Potentiation of yohimbine toxicity ED50
Experimental: (4) Yohimbine toxicity test on mice.
The examination is performed according to Quinton's method. Each group of animals consisting of 10 mice are treated with the compounds to be tested and the vehicle without active agent, respectively. After one hour a sublethal dosage of yohimbine in a volume of 20 ml/kg body weight is administered to the test groups, intraperitoneally. The number of the dead animals is recorded 1 and 24 hours after the administration of yohimbine.

narcosis = assay: Potentiation of narcosis; settings: for Therapeutical index (potentiation of narcosis): LD50 and ED50 narcosis; for ED50: read-out: Potentiation of narcosis ED50

SMILES | Therapeutical index (reserpine ptosis antagonism) (Reserpine ptosis; LD50 and ED50 reserpine ptosis, mice) | ED50 (Reserpine ptosis; Mus musculus, sc, 1 h, read-out: Reserpine ptosis antagonism ED50) [mg/kg] | LD50 at 168 h (in vivo) [mg/kg] | Therapeutical index (inhibition of pentatetrazole spasm) (pentatetrazole spasm) | ED50 (pentatetrazole spasm) [mg/kg] | Therapeutical index (analgesic effect, writhing test) (acetic acid writhing) | ED50 (acetic acid writhing) [mg/kg] | Therapeutical index (inhibition of nicotine lethality) (nicotine lethality) | ED50 (nicotine lethality) [mg/kg] | Therapeutical index (inhibition of maximum electroshock) (maximum electroshock) | ED50 (maximum electroshock) [mg/kg] | Therapeutical index (tetrabenazine ptosis antagonism) (Tetrabenazine ptosis) | ED50 (Tetrabenazine ptosis) [mg/kg] | Therapeutical index (inhibition of intestinal peristalsis) (intestinal peristalsis; LD50 and ED50 intestinal peristalsis, mice) | ED50 (intestinal peristalsis; Mus musculus, po, read-out: Inhibition of intestinal peristalsis ED50) [mg/kg] | Therapeutical index (potentiation of yohimbine toxicity) (yohimbine toxicity) | ED50 (yohimbine toxicity) [mg/kg] | Therapeutical index (potentiation of narcosis) (narcosis) | ED50 (narcosis) [mg/kg]
CCS(=O)(=O)O.CCS(=O)(=O)O.N=C1SCCN1c1ccc(Cl)cc1N [Compound 8, 3-(2-amino-4-chlorophenyl)-2-iminothiazolidine di(ethanesulfonate)] | 50 | 20 | 1000 | 71.4 | 14 | 5.9 | 170 | 83.3 | 12 | 12.5 | 80 | 667 | 1.5 | 10.5 | 95 | 45.5 | 22 | – | –
CC1CN(c2ccc(Cl)cc2N)C(=N)S1.CCS(=O)(=O)O (stereo not shown) [Compound 12, 3-(2-amino-4-chlorophenyl)-2-imino-5-methylthiazolidine ethanesulfonate] | – | – | – | 40 | 15 | 17.7 | 34 | 100 | 6 | 30 | 12 | 83 | 7.2 | – | – | 13.3 | 45 | 14.0 | 41
CCCC(C)(COC(N)=O)COC(N)=O [Meprobamate, reference compound] | – | – | 1100 | – | – | – | – | – | – | – | – | – | – | – | – | – | – | 4.2 | 260
